Literature values in patent US11732223B2, “Solvent compositions for removing petroleum residue from a substrate and methods of use thereof” (priority 2004, dated 2023).

Tested on: rats

For `CCCCOCCOCCO` [butyl carbitol], the “oral LD50” value (oral, rats) is given as 6,560 mg/kg and the “toxicity rating on the Hodge and Sterner scale” value (rat, in vivo) is given as 5.
